# Measurements taken from ChEMBL document CHEMBL1201861, “Genomics of Drug Sensitity in Cancer screening data, Wellcome Trust Sanger Institute”.
# Tests used:
# Assay in all cases: cells
# IA-LM = format: functional, cell-based, Homo sapiens; conditions: Homo sapiens, IA-LM;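 also: cell viability assay measuring growth inhibition of human IA-LM cells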
# Description: SANGER: Inhibition of human IA-LM cell growth in a cell viability assay.
# ES6 = format: functional, cell-based, Homo sapiens; conditions: Homo sapiens, ES6;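 also: growth inhibition of human ES6 cells, read out with a cell viability assay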
# Description: SANGER: Inhibition of human ES6 cell growth in a cell viability assay.
# BHT-101 = format: functional, cell-based, Homo sapiens; conditions: Homo sapiens, BHT-101
# Description: SANGER: Inhibition of human BHT-101 cell growth in a cell viability assay.
# NY = format: functional, cell-based, Homo sapiens; conditions: Homo sapiens, NY
# Description: SANGER: Inhibition of human NY cell growth in a cell viability assay.
# LAN-6 = format: functional, cell-based, Homo sapiens; conditions: Homo sapiens, LAN-6;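 also: growth inhibition of LAN-6 cells, determined with a cell viability assay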
# Description: SANGER: Inhibition of human LAN-6 cell growth in a cell viability assay.
# MDA-MB-453 = format: functional, cell-based, Homo sapiens; conditions: Homo sapiens, MDA-MB-453
# Description: SANGER: Inhibition of human MDA-MB-453 cell growth in a cell viability assay.
# RD = format: functional, cell-based, Homo sapiens; conditions: Homo sapiens, RD
# Description: SANGER: Inhibition of human RD cell growth in a cell viability assay.
# HCC1937 = format: functional, cell-based, Homo sapiens; conditions: Homo sapiens, HCC1937;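 also: growth inhibition measured with a cell viability read-out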
# Description: SANGER: Inhibition of human HCC1937 cell growth in a cell viability assay.
# LS-123 = format: functional, cell-based, Homo sapiens; conditions: Homo sapiens, LS-123
# Description: SANGER: Inhibition of human LS-123 cell growth in a cell viability assay.
# SNU-449 = format: functional, cell-based, Homo sapiens; conditions: Homo sapiens, SNU-449
# Description: SANGER: Inhibition of human SNU-449 cell growth in a cell viability assay.
# SW982 = format: functional, cell-based; conditions: Homo sapiens;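 also: growth inhibition of SW982 cells, read out with a cell viability assay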
# Description: SANGER: Inhibition of human SW982 cell growth in a cell viability assay.
# SN12C = format: functional, cell-based, Homo sapiens; conditions: Homo sapiens, SN12C;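 also: growth inhibition of human SN12C cells, measured by a cell viability assay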
# Description: SANGER: Inhibition of human SN12C cell growth in a cell viability assay.
# HCC1954 = format: functional, cell-based, Homo sapiens; conditions: Homo sapiens, HCC1954;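 also: growth inhibition of human HCC1954 cells, read out with a cell viability assay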
# Description: SANGER: Inhibition of human HCC1954 cell growth in a cell viability assay.
# MFH-ino = format: functional, cell-based; conditions: Homo sapiens;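 also: growth inhibition of human MFH-ino cells, read out by a cell viability assay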
# Description: SANGER: Inhibition of human MFH-ino cell growth in a cell viability assay.
# KS-1 = format: functional, cell-based, Homo sapiens; conditions: Homo sapiens, KS-1;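 also: growth inhibition of KS-1 cells, read out with a cell viability assay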
# Description: SANGER: Inhibition of human KS-1 cell growth in a cell viability assay.
# ALL-PO = format: functional, cell-based; conditions: Homo sapiens;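 also: growth inhibition of ALL-PO cells, read out by a cell viability assay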
# Description: SANGER: Inhibition of human ALL-PO cell growth in a cell viability assay.
# DK-MG = format: functional, cell-based, Homo sapiens; conditions: Homo sapiens, DK-MG;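 also: growth inhibition of DK-MG cells, read out with a cell viability assay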
# Description: SANGER: Inhibition of human DK-MG cell growth in a cell viability assay.
# EW-11 = format: functional, cell-based, Homo sapiens; conditions: Homo sapiens, EW-11;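 also: growth inhibition of human EW-11 cells, measured with a cell viability assay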
# Description: SANGER: Inhibition of human EW-11 cell growth in a cell viability assay.
# CAMA-1 = format: functional, cell-based, Homo sapiens; conditions: Homo sapiens, CAMA-1;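 also: growth inhibition of CAMA-1 cells, read out with a cell viability assay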
# Description: SANGER: Inhibition of human CAMA-1 cell growth in a cell viability assay.
# Huh-7 = format: functional, cell-based, Homo sapiens; conditions: Homo sapiens, Huh-7;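 also: HuH-7 cell growth inhibition, read out with a cell viability assay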
# Description: SANGER: Inhibition of human HuH-7 cell growth in a cell viability assay.
# OVCAR-5 = format: functional, cell-based, Homo sapiens; conditions: Homo sapiens, OVCAR-5;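 also: growth inhibition of human OVCAR-5 cells, read out with a cell viability assay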
# Description: SANGER: Inhibition of human OVCAR-5 cell growth in a cell viability assay.
# IST-SL1 = format: functional, cell-based, Homo sapiens; conditions: Homo sapiens, IST-SL1;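 also: growth inhibition of human IST-SL1 cells, read out with a cell viability assay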
# Description: SANGER: Inhibition of human IST-SL1 cell growth in a cell viability assay.
# A4-Fuk = format: functional, cell-based; conditions: Homo sapiens;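 also: growth inhibition of A4-Fuk cells, read out by a cell viability assay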
# Description: SANGER: Inhibition of human A4-Fuk cell growth in a cell viability assay.
# KLE = format: functional, cell-based, Homo sapiens; conditions: Homo sapiens, KLE;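 also: growth inhibition of human KLE cells, read out with a cell viability assay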
# Description: SANGER: Inhibition of human KLE cell growth in a cell viability assay.
# RPMI-2650 = format: functional, cell-based, Homo sapiens; conditions: Homo sapiens, RPMI-2650
# Description: SANGER: Inhibition of human RPMI-2650 cell growth in a cell viability assay.
# SK-LMS-1 = format: functional, cell-based, Homo sapiens; conditions: Homo sapiens, SK-LMS-1;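 also: growth inhibition of human SK-LMS-1 cells, read out with a cell viability assay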
# Description: SANGER: Inhibition of human SK-LMS-1 cell growth in a cell viability assay.
# SF-268 = format: functional, cell-based, Homo sapiens; conditions: Homo sapiens, SF-268;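 also: growth inhibition of SF-268 cells determined with a cell viability assay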
# Description: SANGER: Inhibition of human SF268 cell growth in a cell viability assay.
# D283 Med = format: functional, cell-based, Homo sapiens; conditions: Homo sapiens, D283 Med
# Description: SANGER: Inhibition of human D-283MED cell growth in a cell viability assay.
# 639-V = format: functional, cell-based, Homo sapiens; conditions: Homo sapiens, 639-V;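 also: growth inhibition of 639-V cells, read out with a cell viability assay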
# Description: SANGER: Inhibition of human 639-V cell growth in a cell viability assay.
# COLO-800 = format: functional, cell-based, Homo sapiens; conditions: Homo sapiens, COLO-800;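 also: growth inhibition of COLO-800 cells, read out with a cell viability assay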
# Description: SANGER: Inhibition of human COLO-800 cell growth in a cell viability assay.
# CAL-51 = format: functional, cell-based, Homo sapiens; conditions: Homo sapiens, CAL-51;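 also: human CAL-51 cell line, growth inhibition read out via a cell viability assay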
# Description: SANGER: Inhibition of human CAL-51 cell growth in a cell viability assay.
# WM-115 = format: functional, cell-based, Homo sapiens; conditions: Homo sapiens, WM-115
# Description: SANGER: Inhibition of human WM-115 cell growth in a cell viability assay.
# MC-IXC = format: functional, cell-based, Homo sapiens; conditions: Homo sapiens, MC-IXC;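 also: growth inhibition of MC-IXC cells, read out with a cell viability assay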
# Description: SANGER: Inhibition of human MC-IXC cell growth in a cell viability assay.
# SAOS-2 = format: functional, cell-based, Homo sapiens; conditions: Homo sapiens, SAOS-2;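 also: growth inhibition of human Saos-2 cells determined by a cell viability assay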
# Description: SANGER: Inhibition of human Saos-2 cell growth in a cell viability assay.
# 5637 = format: functional, cell-based, Homo sapiens; conditions: Homo sapiens
# Description: SANGER: Inhibition of human 5637 cell growth in a cell viability assay.
# NCI-H2122 = format: functional, cell-based, Homo sapiens; conditions: Homo sapiens, NCI-H2122;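 also: growth inhibition of the cells, read out with a cell viability assay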
# Description: SANGER: Inhibition of human NCI-H2122 cell growth in a cell viability assay.
# MKN-1 = format: functional, cell-based, Homo sapiens; conditions: Homo sapiens, MKN-1;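 also: growth inhibition of human MKN1 cells, read out by a cell viability measurement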
# Description: SANGER: Inhibition of human MKN1 cell growth in a cell viability assay.
# KE-37 = format: functional, cell-based; conditions: Homo sapiens;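 also: growth inhibition of KE-37 cells, read out with a cell viability assay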
# Description: SANGER: Inhibition of human KE-37 cell growth in a cell viability assay.
# GAK = format: functional, cell-based, Homo sapiens; conditions: Homo sapiens, GAK;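 also: cell growth inhibition read out by a cell viability assay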
# Description: SANGER: Inhibition of human GAK cell growth in a cell viability assay.
# A388 = format: functional, cell-based, Homo sapiens; conditions: Homo sapiens, A388;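 also: growth inhibition of human A388 cells, read out with a cell viability assay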
# Description: SANGER: Inhibition of human A388 cell growth in a cell viability assay.
# C3A = format: functional, cell-based, Homo sapiens; conditions: Homo sapiens, C3A;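 also: growth inhibition of C3A human cells, quantified with a cell viability readout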
# Description: SANGER: Inhibition of human C3A cell growth in a cell viability assay.
# AN3-CA = format: functional, cell-based; conditions: Homo sapiens;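 also: growth inhibition of human AN3-CA cells measured by a cell viability assay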
# Description: SANGER: Inhibition of human AN3-CA cell growth in a cell viability assay.
# NCI-H2347 = format: functional, cell-based, Homo sapiens; conditions: Homo sapiens, NCI-H2347;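 also: growth inhibition of the cell line, read out with a cell viability assay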
# Description: SANGER: Inhibition of human NCI-H2347 cell growth in a cell viability assay.
# CAL-120 = format: functional, cell-based, Homo sapiens; conditions: Homo sapiens, CAL-120;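 also: cell growth inhibition, read out as cell viability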
# Description: SANGER: Inhibition of human CAL-120 cell growth in a cell viability assay.
# MEG-01 = format: functional, cell-based; conditions: Homo sapiens;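 also: growth inhibition of MEG-01 cells, read out by a cell viability assay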
# Description: SANGER: Inhibition of human MEG-01 cell growth in a cell viability assay.
# NCI-H1437 = format: functional, cell-based, Homo sapiens; conditions: Homo sapiens, NCI-H1437;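 also: growth inhibition of human NCI-H1437 cells, read out by a cell viability assay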
# Description: SANGER: Inhibition of human NCI-H1437 cell growth in a cell viability assay.
# NCI-H1581 = format: functional, cell-based, Homo sapiens; conditions: Homo sapiens, NCI-H1581;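 also: cell growth inhibition read out by a viability assay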
# Description: SANGER: Inhibition of human NCI-H1581 cell growth in a cell viability assay.
# SK-PN-DW = format: functional, cell-based; conditions: Homo sapiens;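 also: growth inhibition measured with a viability assay on these cells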
# Description: SANGER: Inhibition of human SK-PN-DW cell growth in a cell viability assay.
# VA-ES-BJ = format: functional, cell-based, Homo sapiens; conditions: Homo sapiens, VA-ES-BJ;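 also: growth inhibition of the VA-ES-BJ cell line, read out by a cell viability assay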
# Description: SANGER: Inhibition of human VA-ES-BJ cell growth in a cell viability assay.
# SBC-1 = format: functional, cell-based; conditions: Homo sapiens;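 also: cell viability assay measuring growth inhibition of the SBC-1 cell line, IC50 being the concentration that halves growth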
# Description: SANGER: Inhibition of human SBC-1 cell growth in a cell viability assay.
compound,measurement,setting,value
O=c1cc(-c2cccc3c2Sc2ccccc2S3)oc(N2CCOCC2)c1 [KU-55933],IC50,IA-LM,> 10 µM
same,IC50,ES6,> 10 µM
same,IC50,BHT-101,> 10 µM
same,IC50,NY,> 10 µM
same,IC50,LAN-6,> 10 µM
same,IC50,MDA-MB-453,> 10 µM
same,IC50,RD,> 10 µM
same,IC50,HCC1937,> 10 µM
same,IC50,LS-123,> 10 µM
same,IC50,SNU-449,> 10 µM
same,IC50,SW982,> 10 µM
same,IC50,SN12C,> 10 µM
same,IC50,HCC1954,> 10 µM
same,IC50,MFH-ino,> 10 µM
same,IC50,KS-1,> 10 µM
same,IC50,ALL-PO,> 10 µM
same,IC50,DK-MG,> 10 µM
same,IC50,EW-11,> 10 µM
same,IC50,CAMA-1,> 10 µM
same,IC50,Huh-7,> 10 µM
same,IC50,OVCAR-5,> 10 µM
same,IC50,IST-SL1,> 10 µM
same,IC50,A4-Fuk,> 10 µM
same,IC50,KLE,> 10 µM
same,IC50,RPMI-2650,> 10 µM
same,IC50,SK-LMS-1,> 10 µM
same,IC50,SF-268,> 10 µM
same,IC50,D283 Med,> 10 µM
same,IC50,639-V,> 10 µM
same,IC50,COLO-800,> 10 µM
same,IC50,CAL-51,> 10 µM
same,IC50,WM-115,> 10 µM
same,IC50,MC-IXC,> 10 µM
same,IC50,SAOS-2,> 10 µM
same,IC50,5637,> 10 µM
same,IC50,NCI-H2122,> 10 µM
same,IC50,MKN-1,> 10 µM
same,IC50,KE-37,> 10 µM
same,IC50,GAK,> 10 µM
same,IC50,A388,> 10 µM
same,IC50,C3A,> 10 µM
same,IC50,AN3-CA,> 10 µM
same,IC50,NCI-H2347,> 10 µM
same,IC50,CAL-120,> 10 µM
same,IC50,MEG-01,> 10 µM
same,IC50,NCI-H1437,9.81 µM
same,IC50,NCI-H1581,> 10 µM
same,IC50,SK-PN-DW,> 10 µM
same,IC50,VA-ES-BJ,> 10 µM
Cn1cc(C2=C(c3ccc(Cl)cc3Cl)C(=O)NC2=O)c2ccccc21 [SB-216763],IC50,IA-LM,> 10 µM
same,IC50,ES6,> 10 µM
same,IC50,BHT-101,> 10 µM
same,IC50,SBC-1,> 10 µM
same,IC50,NY,> 10 µM
same,IC50,LAN-6,> 10 µM
same,IC50,MDA-MB-453,> 10 µM
same,IC50,RD,> 10 µM
same,IC50,HCC1937,> 10 µM
same,IC50,LS-123,> 10 µM
same,IC50,SNU-449,> 10 µM
same,IC50,SW982,> 10 µM
same,IC50,SN12C,> 10 µM
same,IC50,HCC1954,> 10 µM
same,IC50,MFH-ino,> 10 µM
same,IC50,KS-1,> 10 µM
same,IC50,ALL-PO,> 10 µM
same,IC50,DK-MG,> 10 µM
same,IC50,EW-11,> 10 µM
same,IC50,CAMA-1,> 10 µM
same,IC50,Huh-7,> 10 µM
same,IC50,OVCAR-5,> 10 µM
same,IC50,IST-SL1,9.02 µM
same,IC50,A4-Fuk,> 10 µM
same,IC50,KLE,> 10 µM
same,IC50,RPMI-2650,> 10 µM
same,IC50,SK-LMS-1,> 10 µM
same,IC50,SF-268,> 10 µM
same,IC50,D283 Med,> 10 µM
same,IC50,639-V,> 10 µM
same,IC50,COLO-800,> 10 µM
same,IC50,CAL-51,> 10 µM
same,IC50,WM-115,> 10 µM
same,IC50,MC-IXC,> 10 µM
same,IC50,SAOS-2,> 10 µM
same,IC50,5637,> 10 µM
same,IC50,NCI-H2122,> 10 µM
same,IC50,MKN-1,> 10 µM
same,IC50,KE-37,> 10 µM
same,IC50,GAK,> 10 µM
same,IC50,A388,> 10 µM
same,IC50,C3A,> 10 µM
same,IC50,AN3-CA,> 10 µM
same,IC50,NCI-H2347,> 10 µM
same,IC50,CAL-120,> 10 µM
same,IC50,MEG-01,> 10 µM
same,IC50,NCI-H1437,> 10 µM
same,IC50,NCI-H1581,> 10 µM
same,IC50,SK-PN-DW,> 10 µM
same,IC50,VA-ES-BJ,> 10 µM
